Data taken from the kinase profiling compilation of Christmann-Franck et al. (2016).

Assays:
Test in all cases: radiometric filter-binding kinase assay
INSR (human) = INSR (human) (UniProt P06213)
MAPK3 (human) = MAPK3 (human) (UniProt P27361)
GSK3B (human) = GSK3B (human) (UniProt P49841)
EPHB4 (human) = EPHB4 (human) (UniProt P54760)
DYRK3 (human) = DYRK3 (human) (UniProt O43781)
EPHA4 (human) = EPHA4 (human) (UniProt P54764)
LRRK2 (human) = LRRK2 (human) (UniProt Q5S007)
PAK6 (human) = PAK6 (human) (UniProt Q9NQU5)
NTRK1 (human) = NTRK1 (human) (UniProt P04629)
HIPK2 (human) = HIPK2 (human) (UniProt Q9H2X6)
GCK (human) = GCK (human) (UniProt Q12851)
FLT1 (human) = FLT1 (human) (UniProt P17948)
DAPK1 (human) = DAPK1 (human) (UniProt P53355)
SRC (human) = SRC (human) (UniProt P12931)
PRKCA (human) = PRKCA (human) (UniProt P17252)
LCK (mouse) = conditions: accession and sequence are those of the human protein
STK3 (human) = STK3 (human) (UniProt Q13188)
HIPK3 (human) = HIPK3 (human) (UniProt Q9H422)
EPHB2 (human) = EPHB2 (human) (UniProt P29323)
MST4 (human) = MST4 (human) (UniProt Q9P289)
MAP2K1 (human) = MAP2K1 (human) (UniProt Q02750)
MARK4 (human) = MARK4 (human) (UniProt Q96L34)
MAPK11 (human) = MAPK11 (human) (UniProt Q15759)
ERBB4 (human) = ERBB4 (human) (UniProt Q15303)
MARK1 (human) = MARK1 (human) (UniProt Q9P0L2)
PHKG1 (human) = PHKG1 (human) (UniProt Q16816)
PKN2 (human) = PKN2 (human) (UniProt Q16513)
[1] = system: RPS6KB1 (human), P23443 [T412E]
MINK1 (human) = MINK1 (human) (UniProt Q8N4C8)
EPHB3 (human) = EPHB3 (human) (UniProt P54753)
DCLK2 (human) = DCLK2 (human) (UniProt Q8N568)
AURKA (human) = AURKA (human) (UniProt O14965)
SRPK1 (human) = SRPK1 (human) (UniProt Q96SB4)
PRKAA1 or PRKAA2 (rat) = conditions: accession and sequence are those of the human protein

AURKA (human), sequence (O14965 whole entry, looked up): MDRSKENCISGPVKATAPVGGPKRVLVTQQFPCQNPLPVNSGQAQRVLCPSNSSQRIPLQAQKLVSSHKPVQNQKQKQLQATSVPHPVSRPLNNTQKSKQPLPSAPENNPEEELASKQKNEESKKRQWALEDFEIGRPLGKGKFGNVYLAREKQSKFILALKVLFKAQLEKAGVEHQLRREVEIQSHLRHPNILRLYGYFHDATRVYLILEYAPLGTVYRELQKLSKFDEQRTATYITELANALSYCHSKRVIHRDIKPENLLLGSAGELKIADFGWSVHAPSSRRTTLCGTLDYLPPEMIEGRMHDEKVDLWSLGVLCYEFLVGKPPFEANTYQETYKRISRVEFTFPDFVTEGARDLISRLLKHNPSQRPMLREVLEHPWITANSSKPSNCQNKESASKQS
EPHA4 (human), sequence (P54764 whole entry, looked up): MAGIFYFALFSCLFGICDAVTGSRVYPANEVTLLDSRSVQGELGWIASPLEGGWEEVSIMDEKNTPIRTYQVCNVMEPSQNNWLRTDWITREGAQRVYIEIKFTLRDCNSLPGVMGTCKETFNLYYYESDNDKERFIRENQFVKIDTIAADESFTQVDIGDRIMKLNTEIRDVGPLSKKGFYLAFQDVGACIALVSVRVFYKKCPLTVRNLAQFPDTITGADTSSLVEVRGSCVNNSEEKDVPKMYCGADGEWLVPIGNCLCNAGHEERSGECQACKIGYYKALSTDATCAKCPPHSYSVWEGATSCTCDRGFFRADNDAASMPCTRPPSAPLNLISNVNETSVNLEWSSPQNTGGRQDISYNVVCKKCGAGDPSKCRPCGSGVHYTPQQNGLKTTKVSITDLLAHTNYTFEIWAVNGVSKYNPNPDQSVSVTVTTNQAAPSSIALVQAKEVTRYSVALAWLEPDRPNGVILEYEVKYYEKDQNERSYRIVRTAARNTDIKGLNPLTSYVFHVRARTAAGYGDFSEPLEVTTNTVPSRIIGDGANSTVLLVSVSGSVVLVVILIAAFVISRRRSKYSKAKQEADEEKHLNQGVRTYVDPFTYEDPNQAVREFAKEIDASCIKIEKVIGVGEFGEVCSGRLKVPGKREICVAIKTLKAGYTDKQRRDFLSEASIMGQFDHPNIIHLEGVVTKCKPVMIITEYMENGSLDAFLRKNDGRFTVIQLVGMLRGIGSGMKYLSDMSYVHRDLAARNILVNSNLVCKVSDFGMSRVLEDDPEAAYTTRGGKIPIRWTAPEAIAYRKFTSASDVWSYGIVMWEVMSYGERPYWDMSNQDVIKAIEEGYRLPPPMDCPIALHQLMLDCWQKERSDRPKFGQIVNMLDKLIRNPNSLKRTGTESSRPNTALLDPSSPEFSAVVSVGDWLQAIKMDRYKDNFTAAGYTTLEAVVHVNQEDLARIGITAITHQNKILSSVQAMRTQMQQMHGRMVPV
DYRK3 (human), sequence (O43781 whole entry, looked up): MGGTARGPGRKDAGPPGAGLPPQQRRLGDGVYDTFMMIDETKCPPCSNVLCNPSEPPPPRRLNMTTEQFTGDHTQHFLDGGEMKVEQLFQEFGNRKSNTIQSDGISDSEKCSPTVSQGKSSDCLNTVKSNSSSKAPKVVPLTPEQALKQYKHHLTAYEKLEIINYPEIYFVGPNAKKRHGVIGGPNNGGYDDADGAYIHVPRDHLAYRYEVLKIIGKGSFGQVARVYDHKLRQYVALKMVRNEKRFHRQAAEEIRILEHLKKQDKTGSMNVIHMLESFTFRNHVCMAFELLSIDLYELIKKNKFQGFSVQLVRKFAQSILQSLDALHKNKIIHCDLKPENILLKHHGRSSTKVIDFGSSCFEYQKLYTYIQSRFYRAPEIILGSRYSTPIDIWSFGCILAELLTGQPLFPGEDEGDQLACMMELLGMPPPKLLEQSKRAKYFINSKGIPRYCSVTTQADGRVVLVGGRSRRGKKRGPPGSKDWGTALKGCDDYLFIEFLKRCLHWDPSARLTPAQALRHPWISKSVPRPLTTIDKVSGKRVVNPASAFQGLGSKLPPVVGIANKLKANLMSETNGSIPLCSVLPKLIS
GSK3B (human), sequence (P49841 whole entry, looked up): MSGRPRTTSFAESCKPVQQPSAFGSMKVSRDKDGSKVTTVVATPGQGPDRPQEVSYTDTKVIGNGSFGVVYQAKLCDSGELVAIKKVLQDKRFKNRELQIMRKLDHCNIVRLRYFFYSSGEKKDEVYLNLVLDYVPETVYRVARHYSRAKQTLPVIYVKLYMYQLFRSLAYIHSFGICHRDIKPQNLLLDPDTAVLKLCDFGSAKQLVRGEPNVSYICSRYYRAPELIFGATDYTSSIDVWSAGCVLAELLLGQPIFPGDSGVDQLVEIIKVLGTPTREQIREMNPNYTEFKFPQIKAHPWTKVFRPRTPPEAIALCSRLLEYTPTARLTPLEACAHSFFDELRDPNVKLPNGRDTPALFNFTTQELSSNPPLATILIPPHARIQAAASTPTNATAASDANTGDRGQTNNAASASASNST
MAPK11 (human), sequence (Q15759 whole entry, looked up): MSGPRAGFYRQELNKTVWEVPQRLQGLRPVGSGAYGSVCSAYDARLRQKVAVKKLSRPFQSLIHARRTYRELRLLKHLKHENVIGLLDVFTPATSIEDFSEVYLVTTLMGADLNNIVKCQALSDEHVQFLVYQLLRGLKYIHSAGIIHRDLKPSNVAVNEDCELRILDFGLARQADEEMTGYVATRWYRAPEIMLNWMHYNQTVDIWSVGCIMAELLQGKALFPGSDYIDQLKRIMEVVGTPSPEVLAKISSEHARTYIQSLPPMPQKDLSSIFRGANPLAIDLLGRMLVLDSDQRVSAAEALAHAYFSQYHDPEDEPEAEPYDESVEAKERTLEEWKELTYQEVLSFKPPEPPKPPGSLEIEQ
NTRK1 (human), sequence (P04629 whole entry, looked up): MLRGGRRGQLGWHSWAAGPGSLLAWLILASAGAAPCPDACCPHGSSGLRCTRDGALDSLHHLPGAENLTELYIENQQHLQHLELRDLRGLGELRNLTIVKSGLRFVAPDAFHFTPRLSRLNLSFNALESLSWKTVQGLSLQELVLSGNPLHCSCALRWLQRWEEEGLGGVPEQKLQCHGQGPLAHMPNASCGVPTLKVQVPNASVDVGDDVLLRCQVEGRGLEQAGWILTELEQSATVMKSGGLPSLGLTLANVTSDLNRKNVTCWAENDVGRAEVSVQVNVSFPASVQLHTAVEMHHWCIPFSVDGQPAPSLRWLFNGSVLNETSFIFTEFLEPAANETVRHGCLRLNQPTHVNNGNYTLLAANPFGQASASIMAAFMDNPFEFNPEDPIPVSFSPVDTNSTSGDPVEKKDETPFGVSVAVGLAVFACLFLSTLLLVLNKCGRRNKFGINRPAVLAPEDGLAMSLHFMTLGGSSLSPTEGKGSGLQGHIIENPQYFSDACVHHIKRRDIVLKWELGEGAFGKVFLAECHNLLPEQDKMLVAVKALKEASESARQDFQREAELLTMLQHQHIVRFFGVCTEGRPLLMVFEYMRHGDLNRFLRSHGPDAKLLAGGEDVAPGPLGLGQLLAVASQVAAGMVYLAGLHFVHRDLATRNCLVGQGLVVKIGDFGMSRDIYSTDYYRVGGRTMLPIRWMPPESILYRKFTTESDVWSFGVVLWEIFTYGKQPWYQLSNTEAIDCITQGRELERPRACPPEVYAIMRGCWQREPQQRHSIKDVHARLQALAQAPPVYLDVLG
GCK (human), sequence (Q12851 whole entry, looked up): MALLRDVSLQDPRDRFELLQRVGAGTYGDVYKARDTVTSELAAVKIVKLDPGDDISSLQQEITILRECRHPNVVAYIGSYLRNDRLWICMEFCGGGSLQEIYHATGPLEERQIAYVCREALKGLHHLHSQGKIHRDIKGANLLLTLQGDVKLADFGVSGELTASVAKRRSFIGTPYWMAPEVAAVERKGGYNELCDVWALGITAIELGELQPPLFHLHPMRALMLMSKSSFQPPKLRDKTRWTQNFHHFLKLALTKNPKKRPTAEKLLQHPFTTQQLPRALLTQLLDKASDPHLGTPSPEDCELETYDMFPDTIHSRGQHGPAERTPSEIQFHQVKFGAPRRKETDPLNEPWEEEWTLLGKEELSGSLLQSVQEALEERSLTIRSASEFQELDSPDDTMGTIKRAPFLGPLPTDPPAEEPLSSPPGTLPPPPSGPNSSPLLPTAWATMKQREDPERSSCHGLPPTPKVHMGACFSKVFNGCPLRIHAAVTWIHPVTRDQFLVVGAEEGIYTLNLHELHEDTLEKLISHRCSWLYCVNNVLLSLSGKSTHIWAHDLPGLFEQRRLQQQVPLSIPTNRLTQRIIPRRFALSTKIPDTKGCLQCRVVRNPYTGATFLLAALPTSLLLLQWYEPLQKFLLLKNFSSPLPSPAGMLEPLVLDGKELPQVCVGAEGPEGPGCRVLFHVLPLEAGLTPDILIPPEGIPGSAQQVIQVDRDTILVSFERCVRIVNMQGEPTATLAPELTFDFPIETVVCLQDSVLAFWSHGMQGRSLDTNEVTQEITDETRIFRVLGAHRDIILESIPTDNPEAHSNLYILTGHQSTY

In the case of `COc1cc(C(=O)N2CCC(N3CCN(C)CC3)CC2)ccc1Nc1ncc2c(n1)N(C)c1ccccc1C(=O)N2C`, the residual activity (INSR (human); compound 1.0 µM) is reported as 104%, the residual activity (INSR (human); compound 10.0 µM) is reported as 103% and the residual activity (MAPK3 (human); compound 1.0 µM) is reported as 105%. The residual activity (MAPK3 (human); compound 10.0 µM) was 104%, the residual activity (GSK3B (human); compound 1.0 µM) was 90% and the residual activity (GSK3B (human); compound 10.0 µM) was 95%. For the same compound, the residual activity (EPHB4 (human); compound 1.0 µM) was 90%, the residual activity (EPHB4 (human); compound 10.0 µM) was 107% and the residual activity (DYRK3 (human); compound 1.0 µM) was 95%. The residual activity (DYRK3 (human); compound 10.0 µM) was 96%, the residual activity (EPHA4 (human); compound 1.0 µM) was 88% and the residual activity (EPHA4 (human); compound 10.0 µM) was 94%. The IC50 (LRRK2 (human)) was 13 nM, the residual activity (PAK6 (human); compound 1.0 µM) was 94% and the residual activity (PAK6 (human); compound 10.0 µM) was 89%. It also gave a residual activity (NTRK1 (human); compound 1.0 µM) of 79%, a residual activity (NTRK1 (human); compound 10.0 µM) of 32% and a residual activity (HIPK2 (human); compound 1.0 µM) of 76%. It also gave a residual activity (HIPK2 (human); compound 10.0 µM) of 86%, a residual activity (GCK (human); compound 1.0 µM) of 93% and a residual activity (GCK (human); compound 10.0 µM) of 99%. For the same compound, the residual activity (FLT1 (human); compound 1.0 µM) was 64%, the residual activity (FLT1 (human); compound 10.0 µM) was 61% and the residual activity (DAPK1 (human); compound 1.0 µM) was 85%. For the same compound, the residual activity (DAPK1 (human); compound 10.0 µM) was 77%, the residual activity (SRC (human); compound 1.0 µM) was 99% and the residual activity (SRC (human); compound 10.0 µM) was 99%. For the same compound, the residual activity (PRKCA (human); compound 1.0 µM) was 95%, the residual activity (PRKCA (human); compound 10.0 µM) was 97% and the residual activity (LCK (mouse); compound 1.0 µM) was 106%. The residual activity (LCK (mouse); compound 10.0 µM) was 99%, the residual activity (STK3 (human); compound 1.0 µM) was 100% and the residual activity (STK3 (human); compound 10.0 µM) was 98%. It also gave a residual activity (HIPK3 (human); compound 1.0 µM) of 90%, a residual activity (HIPK3 (human); compound 10.0 µM) of 102% and a residual activity (EPHB2 (human); compound 1.0 µM) of 96%. The residual activity (EPHB2 (human); compound 10.0 µM) was 93%, the residual activity (MST4 (human); compound 1.0 µM) was 90% and the residual activity (MST4 (human); compound 10.0 µM) was 87%. The residual activity (MAP2K1 (human); compound 1.0 µM) was 94%, the residual activity (MAP2K1 (human); compound 10.0 µM) was 86% and the residual activity (MARK4 (human); compound 1.0 µM) was 94%. For the same compound, the residual activity (MARK4 (human); compound 10.0 µM) was 87%, the residual activity (MAPK11 (human); compound 1.0 µM) was 73% and the residual activity (MAPK11 (human); compound 10.0 µM) was 45%. It also gave a residual activity (ERBB4 (human); compound 1.0 µM) of 68%, a residual activity (ERBB4 (human); compound 10.0 µM) of 72% and a residual activity (MARK1 (human); compound 1.0 µM) of 89%. The residual activity (MARK1 (human); compound 10.0 µM) was 93%, the residual activity (PHKG1 (human); compound 1.0 µM) was 98% and the residual activity (PHKG1 (human); compound 10.0 µM) was 59%. It also gave a residual activity (PKN2 (human); compound 1.0 µM) of 74%, a residual activity (PKN2 (human); compound 10.0 µM) of 80% and a residual activity ([1]; compound 1.0 µM) of 86%. For the same compound, the residual activity ([1]; compound 10.0 µM) was 81%, the residual activity (MINK1 (human); compound 1.0 µM) was 99% and the residual activity (MINK1 (human); compound 10.0 µM) was 108%. For the same compound, the residual activity (EPHB3 (human); compound 1.0 µM) was 71%, the residual activity (EPHB3 (human); compound 10.0 µM) was 71% and the IC50 (DCLK2 (human)) was 210 nM. For the same compound, the IC50 (AURKA (human)) was 1200 nM, the residual activity (AURKA (human); compound 1.0 µM) was 33% and the residual activity (AURKA (human); compound 10.0 µM) was 5%. It also gave a residual activity (SRPK1 (human); compound 1.0 µM) of 98%, a residual activity (SRPK1 (human); compound 10.0 µM) of 110% and a residual activity (PRKAA1 or PRKAA2 (rat); compound 1.0 µM) of 70%. The residual activity (PRKAA1 or PRKAA2 (rat); compound 10.0 µM) was 46%.
